Experimental data reported in publication PMC12195967, “Cobalt(II) Complexes of 4′–Nitro–Fenamic Acid: Characterization and Biological Evaluation” (Molecules, 2025).

Legend:
[1] = biological target: T1, bovine serum albumin (BSA) (Bos taurus, UniProt P02769); assay: Albumin tryptophan fluorescence quenching; type: binding; conditions: for relative fluorescence intensity of BSA (I/Io, %), final: % of the initial BSA fluorescence remaining, λem 345 nm; for K(BSA): Scatchard equation, no site marker; for Kq (BSA): τ0 = 10^−8 s
T1 construct: purchased Sigma-Aldrich Co
Method: (§1) The interaction between complexes 1–4 and albumins was investigated by recording the tryptophan fluorescence emission spectra and monitoring the quenching induced by incremental amounts of the complexes. For these experiments, albumins ([…]) were prepared in buffer solution (150 mM NaCl and 15 mM trisodium citrate at pH = 7) and their fluorescence emission spectra were recorded in the range 300—500 nm for λexcitation = 295 nm. Upon incremental addition of the compounds (Figures S13 and S14), a significant decrease in the intensity of the corresponding emission band at λmax,emission = 341 nm and 345 nm for HSA and BSA, respectively, was observed (up to 87% of the initial fluorescence, Figure 8). The observed fluorescence emission quenching might be a result of a change in the spatial conformation of the protein and specifically of rearrangement of its secondary structure, as a result of SA–complex interactions. To quantify this interaction, the fluorescence emission spectra (λexcitation = 295 nm) of the compounds were subtracted from the corresponding overall spectra. The potential influence of the inner-filter effect on the measurements was evaluated with Equation (S6) and was found negligible to affect the measurements.
(§2) The Stern–Volmer constant (KSV), the SA-quenching constant (Kq) and the SA-binding constant (K) of the compounds were determined using the Stern–Volmer and Scatchard equations (Equations (S2), (S3) and (S7)) and corresponding plots (Figures S15–S18). In these calculations, the fluorescence lifetime of tryptophan in SAs (το) was assumed to be 10^−8 s. […]
(§3) S5 Albumin−binding studies
(§4) S5.1 Interaction with albumins
(§5) In order to study the interaction of the compounds with the albumins, the compound was initially dissolved in DMSO (1 mM). Mixing of such solutions with the aqueous buffer solutions of the albumins used in the studies never exceeded 5% DMSO (v/v) in the final solution, which was needed due to low aqueous solubility of most […]
(§6) With the purpose to investigate if the compound can bind to carrier protein like serum albumins, albumin binding studies were carried out by tryptophan fluorescence quenching experiments using BSA or HSA (3 μM) in buffer (containing 15 mM trisodium citrate and 150 mM NaCl at pH 7.0). The quenching of the emission intensity of tryptophan residues of BSA at 344 nm or HSA at 342 nm was monitored using the compound as quenchers with increasing concentration. The fluorescence emission spectra of the compound were also recorded with λexcitation = 295 nm; in case that an additional emission band appeared the albumin−fluorescence emission spectra were corrected by subtracting the spectra of the compound. The influence of the inner−filter effect on the measurements was evaluated by the equation [9] :
(§7) Icorr = Imeas × 10 2 × 10 2 (equation S6) where Icorr = corrected intensity, Imeas = the measured intensity, c = the concentration of the quencher, d = the cuvette (1 cm), ε(λexc) and ε(λem) = the ε of the quencher at the excitation and the emission wavelength, respectively, as calculated from the UV−vis spectra of the […]
(§8) The Stern−Volmer and Scatchard graphs are used to study the interaction of the compound with the albumins. According to the Stern−Volmer quenching equation (equation S2), where Io = initial tryptophan fluorescence intensity of albumin, I = tryptophan fluorescence intensity of BSA after the addition of the quencher, Kq = quenching constant, KSV = Stern−Volmer constant, τo = average lifetime of albumin without the quencher, and, taking as fluorescence lifetime (τo) of tryptophan in albumin at around 10−8 s, KSV (in M−1) can be obtained by the slope of the diagram Io/I versus [compound] (Stern−Volmer plots), […]
(§9) and subsequently the quenching constant (Kq, in M−1s−1) may be calculated from equation From the Scatchard equation:
(§10) [Q] = nK − K Io (equation S7) where n is the number of binding sites per albumin and K is the albumin−binding constant […]

[2] = biological target: T2, human serum albumin (HSA) (Homo sapiens, UniProt P02768); assay: Albumin tryptophan fluorescence quenching; type: binding; conditions: for relative fluorescence intensity of HSA (I/Io, %), final: % of the initial HSA fluorescence remaining, λem 341 nm; for K(HSA): Scatchard equation, no site marker; for Kq (HSA): τ0 = 10^−8 s
T2 construct: purchased Sigma-Aldrich Co
Method: as §1, §2, §3, §4, §5, §6, §7, §8, §9, §10

T2 sequence (P02768 25-609): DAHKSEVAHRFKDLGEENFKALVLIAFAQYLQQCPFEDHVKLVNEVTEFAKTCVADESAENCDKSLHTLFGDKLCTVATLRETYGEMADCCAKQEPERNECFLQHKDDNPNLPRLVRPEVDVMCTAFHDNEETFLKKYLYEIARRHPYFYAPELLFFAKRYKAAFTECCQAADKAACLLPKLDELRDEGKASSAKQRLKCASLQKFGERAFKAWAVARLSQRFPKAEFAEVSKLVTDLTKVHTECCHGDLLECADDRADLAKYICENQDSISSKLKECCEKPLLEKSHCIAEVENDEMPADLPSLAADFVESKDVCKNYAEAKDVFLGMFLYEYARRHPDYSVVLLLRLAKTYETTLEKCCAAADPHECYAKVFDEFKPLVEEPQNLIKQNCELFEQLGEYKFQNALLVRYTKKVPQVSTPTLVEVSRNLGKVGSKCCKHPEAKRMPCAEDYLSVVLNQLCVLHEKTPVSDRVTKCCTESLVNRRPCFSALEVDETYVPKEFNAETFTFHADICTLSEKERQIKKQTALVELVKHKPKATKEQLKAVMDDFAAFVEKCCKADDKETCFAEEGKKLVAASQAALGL
T1 sequence (P02769 25-607): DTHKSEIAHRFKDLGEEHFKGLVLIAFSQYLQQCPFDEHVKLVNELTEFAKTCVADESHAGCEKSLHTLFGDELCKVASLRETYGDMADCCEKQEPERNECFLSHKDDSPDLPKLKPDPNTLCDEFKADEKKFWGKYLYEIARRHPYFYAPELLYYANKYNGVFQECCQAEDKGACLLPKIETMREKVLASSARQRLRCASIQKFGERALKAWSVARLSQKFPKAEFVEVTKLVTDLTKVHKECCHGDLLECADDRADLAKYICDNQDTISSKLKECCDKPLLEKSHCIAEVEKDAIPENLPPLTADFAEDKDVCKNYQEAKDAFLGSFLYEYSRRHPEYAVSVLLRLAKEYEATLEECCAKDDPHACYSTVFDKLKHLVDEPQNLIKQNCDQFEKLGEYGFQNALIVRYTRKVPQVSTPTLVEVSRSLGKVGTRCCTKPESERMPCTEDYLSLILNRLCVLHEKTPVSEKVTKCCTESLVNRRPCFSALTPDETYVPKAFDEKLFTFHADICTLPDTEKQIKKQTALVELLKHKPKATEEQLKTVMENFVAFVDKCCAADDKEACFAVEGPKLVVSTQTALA

| SMILES | relative fluorescence intensity of BSA (I/Io, %), final [1] | K(BSA) [1] | Kq (BSA) [1] | relative fluorescence intensity of HSA (I/Io, %), final [2] | K(HSA) [2] | Kq (HSA) [2] |
| --- | --- | --- | --- | --- | --- | --- |
| O=C(O)c1ccccc1Nc1ccc([N+](=O)[O-])cc1 [4′–NO2–fenH, 4′–nitrofenamic acid] | 45.0% | 3.31 (±0.14) × 10^5 M^−1 | 1.18 (±0.09) × 10^13 M^−1s^−1 | 54.3% | 3.82 (±0.09) × 10^5 M^−1 | 9.54 (±1.09) × 10^12 M^−1s^−1 |
| CO.CO.CO.CO.O=C([O-])c1ccccc1Nc1ccc([N+](=O)[O-])cc1.O=C([O-])c1ccccc1Nc1ccc([N+](=O)[O-])cc1.[Co+2] [Complex 1, [Co(4′–NO2–fen)2(MeOH)4]] | 45.6% | 1.68 (±0.07) × 10^5 M^−1 | 9.51 (±0.06) × 10^12 M^−1s^−1 | 32.8% | 1.68 (±0.04) × 10^5 M^−1 | 1.10 (±0.03) × 10^13 M^−1s^−1 |
| O=C([O-])c1ccccc1Nc1ccc([N+](=O)[O-])cc1.O=C([O-])c1ccccc1Nc1ccc([N+](=O)[O-])cc1.[Co+2].c1ccc(Nc2ccccn2)nc1 [Complex 2, [Co(4′–NO2–fen)2(bipyam)]] | 35.3% | 1.75 (±0.08) × 10^5 M^−1 | 1.30 (±0.06) × 10^13 M^−1s^−1 | 21.1% | 2.56 (±0.10) × 10^5 M^−1 | 1.91 (±0.06) × 10^13 M^−1s^−1 |
| O=C([O-])c1ccccc1Nc1ccc([N+](=O)[O-])cc1.O=C([O-])c1ccccc1Nc1ccc([N+](=O)[O-])cc1.[Co+2].c1cnc2c(c1)ccc1cccnc12 [Complex 3, [Co(4′–NO2–fen)2(phen)]] | 24.4% | 2.06 (±0.07) × 10^5 M^−1 | 1.64 (±0.04) × 10^13 M^−1s^−1 | 22.7% | 1.93 (±0.09) × 10^5 M^−1 | 1.87 (±0.04) × 10^13 M^−1s^−1 |
| C[O-].C[O-].Cc1ccc2ccc3ccc(C)nc3c2n1.Cc1ccc2ccc3ccc(C)nc3c2n1.O=C([O-])c1ccccc1Nc1ccc([N+](=O)[O-])cc1.O=C([O-])c1ccccc1Nc1ccc([N+](=O)[O-])cc1.[Co+2].[Co+2] [Complex 4, [Co2(4′–NO2–fen)2(μ–CH3O)2(neoc)2]] | 19.2% | 2.74 (±0.10) × 10^5 M^−1 | 2.19 (±0.05) × 10^13 M^−1s^−1 | 12.1% | 5.03 (±0.19) × 10^5 M^−1 | 3.98 (±0.12) × 10^13 M^−1s^−1 |
